Experimental data as given in paper PMC8048960 (Chemmedchem, 2020).
Peptide text beside a SMILES is read from it. * marks the point of attachment. Cbz = O=C(OCc1ccccc1)*

Tests used:
[1] = molecular target: purified full‐length Strep flag LRRK2 (Homo sapiens, UniProt Q5S007); assay: In vitro radioactive kinase assay; assay type: biochemical
[2] = molecular target: GFP‐tagged LRRK2 in transfected HEK293 cells (Homo sapiens, UniProt Q5S007); assay: Ubiquitin assay; assay type: cell-based; conditions: 24 h; for LRRK2 ubiquitination (ubiquitin signal): 10 µM, with or without 5 µM MG132, compared to DMSO
Chain of GFP‐tagged LRRK2 in transfected HEK293 cells (Q5S007 whole entry): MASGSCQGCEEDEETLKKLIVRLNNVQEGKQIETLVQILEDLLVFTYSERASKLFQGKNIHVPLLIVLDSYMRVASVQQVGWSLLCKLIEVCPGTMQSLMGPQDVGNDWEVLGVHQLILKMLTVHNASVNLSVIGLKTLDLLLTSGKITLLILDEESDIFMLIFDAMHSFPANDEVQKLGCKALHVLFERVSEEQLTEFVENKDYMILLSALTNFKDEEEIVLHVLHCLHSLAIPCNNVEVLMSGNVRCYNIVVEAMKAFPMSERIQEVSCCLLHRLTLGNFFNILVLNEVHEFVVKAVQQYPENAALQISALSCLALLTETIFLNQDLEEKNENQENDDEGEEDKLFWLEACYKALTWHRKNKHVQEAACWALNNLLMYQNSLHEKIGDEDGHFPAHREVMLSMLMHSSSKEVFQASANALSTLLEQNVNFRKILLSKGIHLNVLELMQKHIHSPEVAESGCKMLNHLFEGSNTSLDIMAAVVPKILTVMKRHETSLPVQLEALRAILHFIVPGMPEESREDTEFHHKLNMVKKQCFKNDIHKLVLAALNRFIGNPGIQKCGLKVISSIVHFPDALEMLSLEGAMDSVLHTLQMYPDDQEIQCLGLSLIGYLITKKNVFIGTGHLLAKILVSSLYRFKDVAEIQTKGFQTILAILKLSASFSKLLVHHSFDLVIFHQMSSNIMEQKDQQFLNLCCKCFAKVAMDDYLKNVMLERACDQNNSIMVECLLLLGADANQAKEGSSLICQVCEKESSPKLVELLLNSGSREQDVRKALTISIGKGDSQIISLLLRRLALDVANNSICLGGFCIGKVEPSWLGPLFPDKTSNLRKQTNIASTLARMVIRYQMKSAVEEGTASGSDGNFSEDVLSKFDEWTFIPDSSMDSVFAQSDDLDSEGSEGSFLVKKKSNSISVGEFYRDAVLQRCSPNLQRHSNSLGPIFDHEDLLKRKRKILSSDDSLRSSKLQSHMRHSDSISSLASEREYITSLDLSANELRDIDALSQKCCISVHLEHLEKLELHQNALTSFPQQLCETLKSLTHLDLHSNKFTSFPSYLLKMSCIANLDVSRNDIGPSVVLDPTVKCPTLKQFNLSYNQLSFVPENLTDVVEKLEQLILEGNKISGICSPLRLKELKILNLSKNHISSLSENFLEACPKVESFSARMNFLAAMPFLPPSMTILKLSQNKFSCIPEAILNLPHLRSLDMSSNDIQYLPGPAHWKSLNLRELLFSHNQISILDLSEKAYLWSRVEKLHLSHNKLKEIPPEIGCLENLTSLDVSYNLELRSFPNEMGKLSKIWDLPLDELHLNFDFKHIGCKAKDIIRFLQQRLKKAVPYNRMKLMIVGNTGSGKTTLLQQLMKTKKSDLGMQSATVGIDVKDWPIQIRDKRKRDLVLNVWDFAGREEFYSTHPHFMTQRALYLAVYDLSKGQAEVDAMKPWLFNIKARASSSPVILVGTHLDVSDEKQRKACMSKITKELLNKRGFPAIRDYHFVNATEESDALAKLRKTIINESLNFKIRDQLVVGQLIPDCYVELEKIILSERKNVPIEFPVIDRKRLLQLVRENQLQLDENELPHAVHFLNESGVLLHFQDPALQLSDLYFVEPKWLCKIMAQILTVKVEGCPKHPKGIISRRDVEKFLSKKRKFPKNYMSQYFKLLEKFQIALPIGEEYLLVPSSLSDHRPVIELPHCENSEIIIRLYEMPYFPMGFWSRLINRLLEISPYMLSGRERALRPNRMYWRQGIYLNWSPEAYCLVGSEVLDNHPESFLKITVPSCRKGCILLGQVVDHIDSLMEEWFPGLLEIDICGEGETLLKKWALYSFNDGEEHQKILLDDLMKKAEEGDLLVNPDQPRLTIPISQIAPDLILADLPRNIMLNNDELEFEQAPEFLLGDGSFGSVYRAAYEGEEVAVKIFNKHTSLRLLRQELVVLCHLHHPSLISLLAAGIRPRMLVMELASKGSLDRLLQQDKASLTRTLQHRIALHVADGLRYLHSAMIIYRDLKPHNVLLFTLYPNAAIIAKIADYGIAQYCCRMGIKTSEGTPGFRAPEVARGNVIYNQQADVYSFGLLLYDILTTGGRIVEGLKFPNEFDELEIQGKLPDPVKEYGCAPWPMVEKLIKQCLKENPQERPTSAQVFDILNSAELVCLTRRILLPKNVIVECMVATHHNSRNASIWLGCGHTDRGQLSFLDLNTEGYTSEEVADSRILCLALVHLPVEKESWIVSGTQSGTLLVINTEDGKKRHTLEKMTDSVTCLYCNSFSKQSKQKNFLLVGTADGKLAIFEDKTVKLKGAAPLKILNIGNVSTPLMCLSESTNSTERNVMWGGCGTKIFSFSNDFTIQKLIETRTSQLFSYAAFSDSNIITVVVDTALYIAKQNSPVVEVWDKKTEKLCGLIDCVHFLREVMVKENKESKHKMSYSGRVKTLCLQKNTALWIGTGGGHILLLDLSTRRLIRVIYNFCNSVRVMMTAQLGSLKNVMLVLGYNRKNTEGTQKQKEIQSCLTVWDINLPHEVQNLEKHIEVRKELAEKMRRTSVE

[3] = cited from earlier work
[4] = system: kinome; conditions: kinases hit out of panel of 187; cited from earlier work
[5] = molecular target: LRRK2; conditions: read-out: Ki in the biochemical assay; cited from earlier work
[6] = system: LRRK2; conditions: read-out: IC50 in the cellular assay; cited from earlier work

Chain of purified full‐length Strep flag LRRK2 (Q5S007 whole entry): as above

IC50 [1]	ubiquitin signal ([2]; 5 µM MG132 (proteasome inhibitor))	Structure (SMILES)	LRRK2 ubiquitination (ubiquitin signal) [2]	brain penetration [3]	kinome selectivity [4]	Ki [5]	IC50 [6]
14.7 ± 6.14 nM		CCNc1nc(Nc2cc(F)c(C(=O)NCCCCNc3cccc4c3C(=O)N(C3CCC(=O)NC3=O)C4=O)cc2OC)ncc1C(F)(F)F (stereo not drawn) [PROTAC 33]	unable to increase the ubiquitin signal				
	can enhance the ubiquitin signal	CC(C)C[C@@H](C=O)NC(=O)[C@H](CC(C)C)NC(=O)[C@H](CC(C)C)NC(=O)OCc1ccccc1 [MG132] (Cbz-Leu-Leu-Leu-aldehyde)					
17.3 ± 6.76 nM		CCNc1nc(Nc2cc(F)c(C(=O)N3CCOCC3)cc2OC)ncc1C(F)(F)F [GNE‐7915]	neither the original kinase inhibitor (11) nor PROTAC (33) increase LRRK2 ubiquitination	brain penetrant	1 out of 187	2 nM	9 nM
